Data published in patent US12687539B2 (priority 2019, dated 2026).

How the values were obtained:
[1] = tested on: DAS5G11E7 monoclonal antibody; assay type: binding, mouse
rat = details: in vivo; cited from earlier work

## CC(=O)OC[C@]12CCC(C)=C[C@H]1O[C@@H]1[C@H](O)[C@@H](OC(C)=O)[C@@]2(C)[C@]12CO2 [DAS, diacetoxyscirpenol]
[1]
  Cross reactivity: 100%
rat
  LDS: 0.75 mg/kg
